Source: patent publication US20240415804A1, “METHOD OF TREATING PANCREATIC CANCER” (University of South Florida, priority 2022, published 2024)

Legend:
Conditions in all cases: miR-155 inhibitor 100 nM, 24 h, vs scrambled miRNA
MiaPaCa-2 cells = test: MTT cell viability assay, MiaPaCa-2; type: cell-based, human
Method: (§1) The methyl thiazol tetrazolium (MTT) assay was performed as described previously^58. Briefly, MiaPaCa-2, Panc02 and UN-KC-6141 cells were seeded in 96-well plates at a density of 3000 cells/well and allowed to attach overnight. PC cells were then treated with API (40 μM) or DMSO (1%) as vehicle control for 24 h at 37° C. in 5% CO2 incubator. After 24 h, media was replaced with 20 μL of MTT (1 mg/mL) (Sigma-Aldrich) and incubated for 3 h at 37° C. in 5% CO2. MTT was replaced with DMSO, and absorbance was read at 570 nm.
(§2) MiaPaCa-2, Panc02 and UN-KC-6141 cells (2×10^5) were grown in 2 mL of growth medium in a 6-well tissue culture plate for 18-24 h until 60-80% confluency. The following solutions were prepared: Solution A) For each transfection, diluted 1 μL of miRNA-155 inhibitors (1 μM) (Table 2) or scrambled negative control miRNA (1 μM) (Qiagen, Germantown, MD, USA) into 50 μL Opti-MEM Transfection Medium (Invitrogen, Waltham, MA, USA). Solution B) For each transfection, diluted 3 μL of Hi-Perfect Transfection Reagent into 50 μL Opti-MEM Transfection Medium. Solution A was added directly to Solution B, mixed gently and the mixture incubated for 10-15 min at room temperature. […]

miR-155 [1] = test: miR-155 gene expression by RT-qPCR in MiaPaCa-2 cells; type: cell-based, human
Method: (§3) MiR-155 is known to be overexpressed in different cancers, including PC^21, 23. The inventors first assessed whether apigenin could modulate the expression of miR-155 in PC cells. Murine PC cell lines Panc02 and UN-KC-6141 as well as the human PC cell line MiaPaCa-2 were treated with API (40 μM) or DMSO vehicle for 24 h and the expression of miR-155 was examined using RT-qPCR assay. […] Since API is known to inhibit the growth of cancer cells, including PC cells^39-43, 47-50, the same PC cell lines were treated with API (40 μM) or DMSO (vehicle) for 24 h and examined cell viability using MTT assay. […] Moreover, Panc02 and UN-KC-6141 cells were then treated with API at a dose dependent concentration (10, 20, 30, 40, 50 μM) and detected apoptosis using flow cytometry (Annexin V and PI).
(§4) miR-155 is implicated in the development of pancreatic tumors from pancreatic intraepithelial neoplasia (PanIN) lesions, and is overexpressed in PC^23. The inventors examined whether the depletion of miR-155 modulated PC viability. Murine and human PC cell lines were transfected with miR-155 inhibitor (i.e., MMU-MIR-155-5P/HSA-MIR-155-5P) and scrambled miRNA at a concentration of 100 nM for 24 h and cell viability determined using an MTT assay. The expression of miR-155 was examined using an RT-qPCR assay as well. […]

UN-KC-6141 cells = test: MTT cell viability assay, UN-KC-6141; type: cell-based, mouse
Method: as §1, §2

Panc02 cells = test: MTT cell viability assay, Panc02; type: cell-based, mouse
Method: as §1, §2

miR-155 [2] = test: miR-155 gene expression by RT-qPCR in Panc02 cells; type: cell-based, mouse
Method: as §3, §4

miR-155 [3] = test: miR-155 gene expression by RT-qPCR in UN-KC-6141 cells; type: cell-based, mouse
Method: as §3, §4

Row | Substance | cell viability (MTT) (MiaPaCa-2 cells) | miR-155 gene expression (miR-155 [1]) | cell viability (MTT) (UN-KC-6141 cells) | cell viability (MTT) (Panc02 cells) | miR-155 gene expression (miR-155 [2]) | miR-155 gene expression (miR-155 [3])
1 | HSA-MIR-155-5P: Qiagen miRCURY LNA miRNA inhibitor (human), sequence 5′-3′ CCTATCACGATTAGCATT, SEQ ID NO: 2 (LNA-modified commercial inhibitor, pattern not given here; listed 3' to 5'; listed as Homo sapiens) [reference compound] | suppressed | significantly depleted |  |  |  | 
2 | MMU-MIR-155-5P: Qiagen miRCURY LNA miRNA inhibitor (mouse), sequence 5′-3′ CCCCTATCACAATTACCATT, SEQ ID NO: 1 (CCCCTATCACAATTAGCATT; LNA-modified commercial inhibitor, pattern not given here; listed 3' to 5'; listed as Mus musculus) [reference compound] |  |  | suppressed | suppressed | significantly depleted | significantly depleted
